{
  "source": "paper PMC4119213",
  "about": "(Translational Psychiatry, 2014)",
  "key": {"[1]": {"target": "rKOR (rat κ-opioid receptor) (Rattus norvegicus, UniProt P34975)", "sequence (P34975 whole entry)": "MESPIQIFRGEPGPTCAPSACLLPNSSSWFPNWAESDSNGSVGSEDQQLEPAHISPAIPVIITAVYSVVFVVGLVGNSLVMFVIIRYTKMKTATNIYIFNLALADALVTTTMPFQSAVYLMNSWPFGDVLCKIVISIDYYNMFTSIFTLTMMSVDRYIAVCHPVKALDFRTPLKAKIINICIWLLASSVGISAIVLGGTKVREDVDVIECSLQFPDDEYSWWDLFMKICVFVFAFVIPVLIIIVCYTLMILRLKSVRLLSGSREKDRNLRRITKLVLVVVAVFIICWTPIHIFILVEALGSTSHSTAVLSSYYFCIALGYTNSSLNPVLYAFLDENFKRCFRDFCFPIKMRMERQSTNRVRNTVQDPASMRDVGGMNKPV", "test": "BRET CAMYEL cAMP assay, HEK-293T", "type": "cell-based"}, "[2]": {"target": "mDOR (mouse δ-opioid receptor) (Mus musculus, UniProt P32300)", "sequence (P32300 whole entry)": "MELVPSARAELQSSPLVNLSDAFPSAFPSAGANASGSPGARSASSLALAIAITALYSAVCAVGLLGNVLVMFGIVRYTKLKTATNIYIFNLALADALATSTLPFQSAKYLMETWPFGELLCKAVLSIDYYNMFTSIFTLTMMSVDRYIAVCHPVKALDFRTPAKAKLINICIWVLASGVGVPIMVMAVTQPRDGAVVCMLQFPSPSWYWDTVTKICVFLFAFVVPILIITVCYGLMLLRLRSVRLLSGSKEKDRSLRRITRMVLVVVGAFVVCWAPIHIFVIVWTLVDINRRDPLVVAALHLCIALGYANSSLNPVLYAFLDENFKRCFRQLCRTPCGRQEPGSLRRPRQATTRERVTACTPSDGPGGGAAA", "test": "BRET G-protein activation, HEK-293T", "type": "cell-based"}, "[3]": {"target": "KOR (human κ-opioid receptor, PDSP binding) (Homo sapiens, UniProt P41145)", "sequence (P41145 whole entry)": "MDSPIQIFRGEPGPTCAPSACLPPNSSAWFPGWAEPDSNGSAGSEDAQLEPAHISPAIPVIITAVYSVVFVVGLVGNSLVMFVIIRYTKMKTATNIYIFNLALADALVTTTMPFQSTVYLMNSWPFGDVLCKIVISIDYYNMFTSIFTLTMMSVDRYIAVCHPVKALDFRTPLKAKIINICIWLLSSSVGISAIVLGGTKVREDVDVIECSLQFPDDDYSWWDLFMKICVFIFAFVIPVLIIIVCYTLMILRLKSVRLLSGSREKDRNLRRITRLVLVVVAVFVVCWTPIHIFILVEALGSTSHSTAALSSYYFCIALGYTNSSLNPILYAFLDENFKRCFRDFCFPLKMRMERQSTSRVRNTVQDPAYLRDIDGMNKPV", "test": "radioligand displacement", "settings": "n=4"}, "[4]": {"target": "hDOR (human δ-opioid receptor) (Homo sapiens, UniProt P41143)", "sequence (P41143 whole entry)": "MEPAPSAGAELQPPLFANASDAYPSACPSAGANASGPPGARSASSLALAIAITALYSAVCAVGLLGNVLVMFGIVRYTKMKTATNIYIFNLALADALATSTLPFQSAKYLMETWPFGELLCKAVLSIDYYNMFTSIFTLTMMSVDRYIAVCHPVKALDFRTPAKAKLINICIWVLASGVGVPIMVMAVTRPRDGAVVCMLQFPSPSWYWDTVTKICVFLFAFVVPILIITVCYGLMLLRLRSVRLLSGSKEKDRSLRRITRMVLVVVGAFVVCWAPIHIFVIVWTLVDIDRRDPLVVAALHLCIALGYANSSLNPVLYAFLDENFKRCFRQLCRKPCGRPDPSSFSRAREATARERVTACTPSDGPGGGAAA", "test": "radioligand displacement"}, "[5]": {"target": "hMOR (human μ-opioid receptor) (Homo sapiens, UniProt P35372)", "sequence (P35372 whole entry)": "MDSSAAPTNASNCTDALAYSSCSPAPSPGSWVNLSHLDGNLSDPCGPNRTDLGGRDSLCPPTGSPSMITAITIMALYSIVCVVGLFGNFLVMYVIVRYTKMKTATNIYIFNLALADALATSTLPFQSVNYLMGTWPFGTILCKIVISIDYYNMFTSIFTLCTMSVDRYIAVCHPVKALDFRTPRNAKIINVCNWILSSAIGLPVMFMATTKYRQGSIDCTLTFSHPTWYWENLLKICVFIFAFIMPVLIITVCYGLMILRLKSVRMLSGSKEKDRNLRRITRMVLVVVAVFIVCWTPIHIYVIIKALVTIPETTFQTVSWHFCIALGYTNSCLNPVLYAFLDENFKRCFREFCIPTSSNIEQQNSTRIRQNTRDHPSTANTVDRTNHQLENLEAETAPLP", "test": "radioligand displacement"}},
  "data": [
    {"smiles": "Oc1ccc2c3c1O[C@H]1c4[nH]c5c(c4C[C@@]4(O)[C@@H](C2)N(CC2CC2)CC[C@]314)C[C@@]1(O)[C@H]2Cc3ccc(O)c4c3[C@@]1(CCN2CC1CC1)[C@H]5O4", "note": "[nor-binaltorphimine]", "values": [
      {"measurement": "IC50", "setting": "[1]", "result": "28.1 ± 27.2", "unit": "nM"}
    ]},
    {"smiles": "CN1c2ccccc2C(NCCCCCCC(=O)O)c2ccc(Cl)cc2S1(=O)=O", "note": "(centres unmarked) [tianeptine]", "values": [
      {"measurement": "EC50", "setting": "[2]", "result": "14500 ± 6600", "unit": "nM"},
      {"measurement": "Ki", "setting": "[3]", "result": "Kis were determined at MOR, as well as at DOR and KOR"},
      {"measurement": "Ki", "setting": "[4]", "result": "> 10000", "unit": "nM"},
      {"measurement": "Ki", "setting": "[5]", "result": "383 ± 183", "unit": "nM"}
    ]}
  ]
}
